Data as given in patent publication US6737383B1, “Herbicidal oxadiazolidines” (priority 1999, dated 2004).

Assays:
bedstraw = assay: Test B pre/postemergence bedstraw; assay type: in vivo, Galium aparine
Outline: (§1)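 Response is a visual 0-to-10 score relative to untreated plants, where 0 means no effect and 10 means complete control, taken twelve to sixteen days after application. Treatments went onto soil at planting and onto foliage of 1- to 4-leaf plants, using a surfactant-containing non-phytotoxic solvent.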

blackgrass = assay: Test B pre/postemergence blackgrass; assay type: in vivo, Alopecurus myosuroides
Outline: as §1

surinam grass = assay: Test B pre/postemergence surinam grass; assay type: in vivo, Brachiaria decumbens
Outline: as §1

cocklebur = assay: Test B pre/postemergence cocklebur; assay type: in vivo, Xanthium strumarium
Outline: as §1

corn = assay: Test B pre/postemergence corn; assay type: in vivo, Zea mays
Outline: as §1

crabgrass = assay: Test B pre/postemergence crabgrass; assay type: in vivo, Digitaria sanguinalis
Outline: as §1

giant foxtail = assay: Test B pre/postemergence giant foxtail; assay type: in vivo, Setaria faberii
Outline: as §1

morningglory = assay: Test B pre/postemergence morningglory; assay type: in vivo, Ipomoea hederacea
Outline: as §1

pigweed = assay: Test B pre/postemergence pigweed; assay type: in vivo, Amaranthus retroflexus
Outline: as §1

rape = assay: Test B pre/postemergence rape; assay type: in vivo, Brassica napus
Outline: as §1

soybean = assay: Test B pre/postemergence soybean; assay type: in vivo, Glycine max
Outline: as §1

sugar beet = assay: Test B pre/postemergence sugar beet; assay type: in vivo, Beta vulgaris
Outline: as §1

velvetleaf = assay: Test B pre/postemergence velvetleaf; assay type: in vivo, Abutilon theophrasti
Outline: as §1

wheat = assay: Test B pre/postemergence wheat; assay type: in vivo, Triticum aestivum
Outline: as §1

wild oat = assay: Test B pre/postemergence wild oat; assay type: in vivo, Avena fatua
Outline: as §1

purple nutsedge = assay: Test B pre/postemergence purple nutsedge; assay type: in vivo, Cyperus rotundus
Outline: as §1

[1] = Postemergence, Rate 125 g/ha, scale of 0 to 10 where 0 is no effect and 10 is complete control
[2] = Rate 62 g/ha, Preemergence, scale 0 to 10
[3] = Rate 250 g/ha, Postemergence, scale 0 to 10, 0 is no effect, 10 is complete control
[4] = Rate 500 g/ha, Postemergence, scale 0 to 10, 0 is no effect, 10 is complete control
[5] = Postemergence, Rate 62 g/ha, scale 0 to 10, 0 is no effect, 10 is complete control
[6] = Preemergence, Rate 125 g/ha, scale of 0 to 10 where 0 is no effect and 10 is complete control
[7] = Preemergence, Rate 250 g/ha, scale 0 (no effect) to 10 (complete control)
[8] = Rate 500 g/ha, Preemergence, scale 0 to 10 (0 no effect, 10 complete control)
[9] = Postemergence, Rate 500 g/ha, scale 0 (no effect) to 10 (complete control)
[10] = Postemergence, Rate 1000 g/ha, scale 0 to 10 (0 no effect, 10 complete control)
[11] = Rate 125 g/ha, Preemergence, scale 0 to 10 (0 no effect, 10 complete control)
[12] = Rate 1000 g/ha, Preemergence, scale 0 to 10 (0 no effect, 10 complete control)

CC(C)N(C(=O)n1oc(=O)n(CC(F)F)c1=O)c1ccccc1 [Compound 746]
Bedstraw plant response rating (bedstraw; [1]): 7 | Bedstraw plant response rating (bedstraw; [2]): 8 | Bedstraw plant response rating (bedstraw; [3]): 8 | Bedstraw plant response rating (bedstraw; [4]): 9 | Plant response rating, Blackgrass (blackgrass; [5]): 5 | Blackgrass plant response rating (blackgrass; [1]): 7 | Plant response rating, Blackgrass (blackgrass; [6]): 9 | Blackgrass plant response rating (blackgrass; [7]): 10 | Blackgrass plant response rating (blackgrass; [2]): 9 | Blackgrass plant response rating (blackgrass; [3]): 8 | Blackgrass plant response rating (blackgrass; [4]): 8 | Plant response rating, B. signalgrass (surinam grass; [5]): 3 | B. signalgrass plant response rating (surinam grass; [1]): 4 | B. signalgrass plant response rating (surinam grass; Preemergence, Rate 62 g/ha, scale of 0 to 10 where 0 is no effect and 10 is complete control): 7 | Plant response rating, B. signalgrass (surinam grass; [6]): 9 | B. signalgrass plant response rating (surinam grass; [7]): 9 | B. signalgrass plant response rating (surinam grass; [3]): 6 | B. signalgrass plant response rating (surinam grass; [4]): 8 | Plant response rating, Cocklebur (cocklebur; [5]): 0 | Cocklebur plant response rating (cocklebur; [1]): 2 | Plant response rating, Cocklebur (cocklebur; [6]): 0 | Cocklebur plant response rating (cocklebur; [7]): 0 | Cocklebur plant response rating (cocklebur; [3]): 2 | Cocklebur plant response rating (cocklebur; [4]): 4 | Cocklebur plant response rating (cocklebur; [8]): 4 | Plant response rating, Corn (corn; [5]): 0 | Corn plant response rating (corn; [1]): 0 | Plant response rating, Corn (corn; [6]): 3 | Corn plant response rating (corn; [7]): 3 | Corn plant response rating (corn; [2]): 0 | Corn plant response rating (corn; [3]): 4 | Corn plant response rating (corn; [4]): 5 | Corn plant response rating (corn; [8]): 4 | Plant response rating, Crabgrass (crabgrass; [5]): 7 | Crabgrass plant response rating (crabgrass; [1]): 9 | Plant response rating, Crabgrass (crabgrass; [6]): 10 | Crabgrass plant response rating (crabgrass; [7]): 10 | Crabgrass plant response rating (crabgrass; [2]): 9 | Crabgrass plant response rating (crabgrass; [3]): 9 | Crabgrass plant response rating (crabgrass; [4]): 10 | Crabgrass plant response rating (crabgrass; [8]): 10 | Plant response rating, Giant foxtail (giant foxtail; [5]): 6 | Giant foxtail plant response rating (giant foxtail; [1]): 8 | Plant response rating, Giant foxtail (giant foxtail; [6]): 10 | Giant foxtail plant response rating (giant foxtail; [7]): 10 | Giant foxtail plant response rating (giant foxtail; [2]): 10 | Giant foxtail plant response rating (giant foxtail; [3]): 9 | Giant foxtail plant response rating (giant foxtail; [4]): 9 | Giant foxtail plant response rating (giant foxtail; [8]): 10 | Plant response rating, Morningglory (morningglory; [5]): 4 | Morningglory plant response rating (morningglory; [1]): 8 | Plant response rating, Morningglory (morningglory; [6]): 4 | Morningglory plant response rating (morningglory; [7]): 6 | Morningglory plant response rating (morningglory; [2]): 0 | Morningglory plant response rating (morningglory; [3]): 10 | Morningglory plant response rating (morningglory; [4]): 10 | Morningglory plant response rating (morningglory; [8]): 8 | Plant response rating, Redroot pigweed (pigweed; [5]): 6 | Redroot pigweed plant response rating (pigweed; [1]): 5 | Plant response rating, Redroot pigweed (pigweed; [6]): 10 | Redroot pigweed plant response rating (pigweed; [7]): 10 | Redroot pigweed plant response rating (pigweed; [2]): 10 | Redroot pigweed plant response rating (pigweed; [3]): 8 | Redroot pigweed plant response rating (pigweed; [4]): 9 | Plant response rating, Rape (rape; [5]): 4 | Rape plant response rating (rape; [1]): 4 | Plant response rating, Rape (rape; [6]): 9 | Rape plant response rating (rape; [7]): 9 | Rape plant response rating (rape; [2]): 2 | Rape plant response rating (rape; [3]): 7 | Rape plant response rating (rape; [4]): 7 | Plant response rating, Soybean (soybean; [5]): 2 | Soybean plant response rating (soybean; [1]): 3 | Plant response rating, Soybean (soybean; [6]): 0 | Soybean plant response rating (soybean; [7]): 5 | Soybean plant response rating (soybean; [2]): 0 | Soybean plant response rating (soybean; [3]): 4 | Soybean plant response rating (soybean; [4]): 6 | Soybean plant response rating (soybean; [8]): 5 | Plant response rating, Sugarbeets (sugar beet; [5]): 0 | Sugarbeets plant response rating (sugar beet; [1]): 0 | Plant response rating, Sugarbeets (sugar beet; [6]): 7 | Sugarbeets plant response rating (sugar beet; [7]): 7 | Sugarbeets plant response rating (sugar beet; [2]): 5 | Sugarbeets plant response rating (sugar beet; [3]): 4 | Sugarbeets plant response rating (sugar beet; [4]): 4 | Plant response rating, Velvetleaf (velvetleaf; [5]): 2 | Velvetleaf plant response rating (velvetleaf; [1]): 6 | Plant response rating, Velvetleaf (velvetleaf; [6]): 6 | Velvetleaf plant response rating (velvetleaf; [7]): 7 | Velvetleaf plant response rating (velvetleaf; [2]): 4 | Velvetleaf plant response rating (velvetleaf; [3]): 6 | Velvetleaf plant response rating (velvetleaf; [4]): 7 | Velvetleaf plant response rating (velvetleaf; [8]): 8 | Plant response rating, Wheat (wheat; [5]): 0 | Wheat plant response rating (wheat; [1]): 4 | Plant response rating, Wheat (wheat; [6]): 7 | Wheat plant response rating (wheat; [7]): 8 | Wheat plant response rating (wheat; [2]): 6 | Wheat plant response rating (wheat; [4]): 6 | Plant response rating, Wild oats (wild oat; [5]): 0 | Wild oats plant response rating (wild oat; [1]): 2 | Plant response rating, Wild oats (wild oat; [6]): 10 | Wild oats plant response rating (wild oat; [7]): 10 | Wild oats plant response rating (wild oat; [2]): 7 | Wild oats plant response rating (wild oat; [3]): 6 | Wild oats plant response rating (wild oat; [4]): 7 | Plant response rating, Nutsedge (purple nutsedge; [5]): 0 | Nutsedge plant response rating (purple nutsedge; [1]): 0 | Plant response rating, Nutsedge (purple nutsedge; [6]): 3 | Nutsedge plant response rating (purple nutsedge; [2]): 0 | Nutsedge plant response rating (purple nutsedge; [3]): 2 | Nutsedge plant response rating (purple nutsedge; [4]): 4 | Nutsedge plant response rating (purple nutsedge; [8]): 5

COC(=O)N(C)CCn1c(=O)on(C(=O)N(c2ccccc2)C(C)C)c1=O [Compound 775]
Bedstraw plant response rating (bedstraw; [1]): 0 | Bedstraw plant response rating (bedstraw; [9]): 7 | Bedstraw plant response rating (bedstraw; [10]): 7 | Bedstraw plant response rating (bedstraw; [7]): 0 | Bedstraw plant response rating (bedstraw; [11]): 0 | Bedstraw plant response rating (bedstraw; [3]): 2 | Bedstraw plant response rating (bedstraw; [8]): 2 | Plant response rating, Bedstraw (bedstraw; [12]): 2 | Blackgrass plant response rating (blackgrass; [1]): 0 | Blackgrass plant response rating (blackgrass; [9]): 7 | Blackgrass plant response rating (blackgrass; [10]): 4 | Blackgrass plant response rating (blackgrass; [7]): 9 | Blackgrass plant response rating (blackgrass; [11]): 5 | Blackgrass plant response rating (blackgrass; [3]): 4 | Blackgrass plant response rating (blackgrass; [8]): 10 | Plant response rating, Blackgrass (blackgrass; [12]): 10 | B. signalgrass plant response rating (surinam grass; [1]): 2 | B. signalgrass plant response rating (surinam grass; [10]): 9 | B. signalgrass plant response rating (surinam grass; [3]): 3 | B. signalgrass plant response rating (surinam grass; [4]): 3 | Cocklebur plant response rating (cocklebur; [1]): 0 | Cocklebur plant response rating (cocklebur; [9]): 0 | Cocklebur plant response rating (cocklebur; [10]): 0 | Cocklebur plant response rating (cocklebur; [7]): 0 | Cocklebur plant response rating (cocklebur; [11]): 0 | Cocklebur plant response rating (cocklebur; [3]): 0 | Cocklebur plant response rating (cocklebur; [8]): 0 | Plant response rating, Cocklebur (cocklebur; [12]): 0 | Corn plant response rating (corn; [1]): 0 | Corn plant response rating (corn; [9]): 0 | Corn plant response rating (corn; [10]): 0 | Corn plant response rating (corn; [7]): 0 | Corn plant response rating (corn; [11]): 0 | Corn plant response rating (corn; [3]): 0 | Corn plant response rating (corn; [8]): 3 | Plant response rating, Corn (corn; [12]): 4 | Crabgrass plant response rating (crabgrass; [1]): 3 | Crabgrass plant response rating (crabgrass; [9]): 9 | Crabgrass plant response rating (crabgrass; [10]): 9 | Crabgrass plant response rating (crabgrass; [7]): 9 | Crabgrass plant response rating (crabgrass; [11]): 9 | Crabgrass plant response rating (crabgrass; [3]): 7 | Crabgrass plant response rating (crabgrass; [8]): 10 | Plant response rating, Crabgrass (crabgrass; [12]): 10 | Giant foxtail plant response rating (giant foxtail; [1]): 7 | Giant foxtail plant response rating (giant foxtail; [9]): 9 | Giant foxtail plant response rating (giant foxtail; [10]): 9 | Giant foxtail plant response rating (giant foxtail; [7]): 10 | Giant foxtail plant response rating (giant foxtail; [11]): 9 | Giant foxtail plant response rating (giant foxtail; [3]): 7 | Giant foxtail plant response rating (giant foxtail; [8]): 10 | Plant response rating, Giant foxtail (giant foxtail; [12]): 10 | Morningglory plant response rating (morningglory; [1]): 5 | Morningglory plant response rating (morningglory; [9]): 6 | Morningglory plant response rating (morningglory; [10]): 8 | Morningglory plant response rating (morningglory; [11]): 0 | Morningglory plant response rating (morningglory; [3]): 6 | Morningglory plant response rating (morningglory; [8]): 2 | Plant response rating, Morningglory (morningglory; [12]): 5 | Redroot pigweed plant response rating (pigweed; [1]): 3 | Redroot pigweed plant response rating (pigweed; [9]): 3 | Redroot pigweed plant response rating (pigweed; [10]): 6 | Redroot pigweed plant response rating (pigweed; [11]): 0 | Redroot pigweed plant response rating (pigweed; [3]): 3 | Redroot pigweed plant response rating (pigweed; [8]): 9 | Plant response rating, Redroot pigweed (pigweed; [12]): 10 | Rape plant response rating (rape; [1]): 0 | Rape plant response rating (rape; [9]): 0 | Rape plant response rating (rape; [10]): 0 | Rape plant response rating (rape; [11]): 0 | Rape plant response rating (rape; [3]): 0 | Rape plant response rating (rape; [8]): 0 | Plant response rating, Rape (rape; [12]): 7 | Soybean plant response rating (soybean; [9]): 6 | Soybean plant response rating (soybean; [11]): 0 | Soybean plant response rating (soybean; [3]): 6 | Soybean plant response rating (soybean; [8]): 1 | Plant response rating, Soybean (soybean; [12]): 2 | Sugarbeets plant response rating (sugar beet; [9]): 0 | Sugarbeets plant response rating (sugar beet; [11]): 0 | Sugarbeets plant response rating (sugar beet; [3]): 0 | Sugarbeets plant response rating (sugar beet; [8]): 3 | Plant response rating, Sugarbeets (sugar beet; [12]): 3 | Velvetleaf plant response rating (velvetleaf; [9]): 2 | Velvetleaf plant response rating (velvetleaf; [11]): 0 | Velvetleaf plant response rating (velvetleaf; [3]): 2 | Velvetleaf plant response rating (velvetleaf; [8]): 0 | Plant response rating, Velvetleaf (velvetleaf; [12]): 4 | Wheat plant response rating (wheat; [9]): 0 | Wheat plant response rating (wheat; [11]): 0 | Wheat plant response rating (wheat; [3]): 0 | Wheat plant response rating (wheat; [8]): 8 | Plant response rating, Wheat (wheat; [12]): 9 | Wild oats plant response rating (wild oat; [9]): 0 | Wild oats plant response rating (wild oat; [11]): 2 | Wild oats plant response rating (wild oat; [3]): 0 | Wild oats plant response rating (wild oat; [8]): 8 | Plant response rating, Wild oats (wild oat; [12]): 9 | Nutsedge plant response rating (purple nutsedge; [1]): 0 | Nutsedge plant response rating (purple nutsedge; [10]): 0 | Nutsedge plant response rating (purple nutsedge; [11]): 0 | Nutsedge plant response rating (purple nutsedge; [3]): 0 | Nutsedge plant response rating (purple nutsedge; [8]): 0 | Plant response rating, Nutsedge (purple nutsedge; [12]): 9
